Test results: patent publication US5342970A, “Hydrosoluble coumarin derivatives, their preparation and their use as an enzyme substrate or for the preparation of such substrates” (priority 1991, dated 1994)
“And” between values parts separate entries of the source, which are not always exact repeats. Equal entries are not always repeated. Structures can show the parent of a compound that is named as a salt. Where two headings read alike, the source gives them in different places. Blank lines part the entries; values can stand above or below the molecule they belong to.

Assays:
[1] = Ratio of fluorescence intensities of hydrolysis product and substrate; format: physicochemical; details: equimolar concentration, at the measurement wavelength
[2] = Excitation and emission spectra of substrates and hydrolysis products (Table 1); format: physicochemical
[3] = Solubility in water and in water-ethanol mixtures; format: physicochemical; details: water; read-out: Solubility in water
[4] = Excitation and emission spectra of ATC derivatives (Table 4); format: physicochemical; details: 10^-7 M; Z-Arg-ATC in 50 mM Tris pH 8, 10 mM CaCl2
Procedure: The excitation and emission spectra of ATC and Z-Arg-ATC were plotted on the basis of 10^-7 M solutions in the 50 mM Tris buffer at pH 8 containing 10 mM of CaCl2. The maxima obtained are indicated in table 4 with the corresponding maxima of Leu-ATC.

[5] = test system: Leucine aminopeptidase; assay: Enzymatic hydrolysis of substrate by leucine aminopeptidase, Michaelis kinetics; format: biochemical
Procedure: As a result of the possible presence in the substrate Leu ATC (compound 13) of a trace of ATC, i.e. 7-amino-4-(2',5',8'-trioxanonyl)-coumarin, which is the hydrolysis product, use was made of a kinetic method for determining the enzymatic activity of leucine aminopeptidase, i.e. the signal is constituted by the fluorescence intensity difference at 2 minutes and 12 minutes. In this way it is possible to eliminate the interference of the ATC present prior to hydrolysis.
The initial speed of the reaction was studied for a concentration of the substrate constituted by compound 13 (Leu-ATC) between 2×10^-5 mole/l and […] using the following reagents:
Crystalline Leu-ATC hydrochloride of example 13: aqueous solutions 4×10^-5 to 4×10^-3 mole/l,
Leucine aminopeptidase (Sigma, ref N5006): aqueous solution at 7.53 μg/ml in 0.2M Tris buffer, pH7.8,
Tris buffer: solution A: 0.2M Tris, i.e. 24.23 g/l, solution B: 0.1M HCl.
This buffer is prepared by mixing 25 ml of solution A and 33.7 ml of solution B and by topping up to 100 ml with water. The pH must be 7.8.
1.17N perchloric acid solution (1/10 dilution of the pure acid).
For this determination, preparation firstly takes place in tubes of the following range of substrate concentrations (compound 13, Leu-ATC): 0-2-4-10-20-50-100-200×10^-5 M (final concentration).
To each tube is added a concentration of 1.51 μg/ml of Leucine aminopeptidase, everything being dissolved in the Tris buffer at pH 7.8, preheated to 37° C., whilst the tubes are in a water bath thermostatically controlled to 37° C. After 2 min, 250 μl are removed from each tube and poured into tubes containing 250 μl of perchloric solution and 750 μl of water. The same operation is repeated after 6 min. All the tubes are diluted to 1/1000. The intensity of the fluorescence IF is measured at 370/480 nm. The difference of the intensities at 6 and 2 min: […] constitutes the signal.
The corresponding ATC concentration is calculated relative to a calibration range between 10^-9 and 10^-8 M. The results are given in the following table 2:
The speed constant kcat is calculated by the ratio Vm/Ez, in which Vm is the maximum speed in μmole/s/mg/Ez and Ez is the enzyme quantity in 1 mg, expressed in μmole. The molar mass of Leucine aminopeptidase is 300000.
This curve has a hyperbolic behaviour characteristic of a Michaelis kinetics. The experimental points were adjusted to the corresponding equation by non-linear regression (Graphpad software) and made it possible to determine the affinity constant Km, the maximum speed Vm and the speed constant kcat (ratio of the maximum speed to the enzyme concentration).

[6] = test system: Leucine aminopeptidase; assay: Determination of leucine aminopeptidase, analytical characteristics of the reaction; format: biochemical
Procedure: The reaction conditions were determined following the preceding stage. The Leu-ATC substrate concentration was chosen to give a maximum speed (1 mM). The reaction time was made 12 minutes by measuring the difference of the fluorescence intensities at 12 and 2 minutes. In order to evaluate the quantification limit, measure the repeatability and test the linearity, […] were prepared containing concentrations of 0-0.05-0.10-0.25-0.50-1 μg/ml using the same reagents as previously and giving the following range:
In order to carry out the evaluation, a series of tubes was prepared containing 750 μl of water+250 μl of 1.17N perchloric solution and at time 2 min, transfer thereto took place of 250 μl of each sample of the enzyme range. The same took place at time 12 min. This was followed by the dilution of all the tubes to 1/200 in water and the reading of the fluorescence (370/480 nm) with a gain of 2 on the Perkin Elmer LS3B fluorimeter.
The results obtained are given in FIG. 25, with which is the mean calibration curve illustrating the variation of the fluorescence intensity as a function of the enzyme concentration (μg/ml). This calibration curve was determined by linear regression. The mean standard deviation is 153±7.36 for the gradient and -3.10±1.16 for the intercept.
The quantification limit, calculated by the ratio […], is 0.02 μg/ml.
The repeatability, evaluated by the variation coefficient, is 17% at 0.05 μg/ml, 8% at 0.25 μg/ml and 4% at 1 μg/ml.

[7] = test system: Leucine aminopeptidase; details: known substrates, for comparison; medium with organic solvent; cited from earlier work
[8] = test system: Leucine aminopeptidase; details: comparison substrate Leu-AMC; cited from earlier work
[9] = substrate: COCCOCCOCc1cc(=O)oc2cc(NC(=O)[C@H](CCCNC(=N)N)NC(=O)OCc3ccccc3)ccc12; assay: Hydrolysis of substrate by trypsin, Michaelis kinetics; format: biochemical, pig; details: other: Tris buffer pH 8.0 + CaCl2 10 mM, ambient temperature
Procedure: Crystalline Z-Arg-ATC hydrochloride (Seratec): 10^-3 M solution in Tris buffer, pH 8.0+CACl2, 10 mM.
Pig pancreas trypsin (SIGMA T0134): 10^-3 M solution in Tris buffer, pH 8.0+CACl2, 10 mM.
Tris buffer: solution A: 0.2M Tris, i.e. 24.23 g/l+CaCl2, 40 mM, i.e. 5.88 g/l; solution B: 0.1M HCl.
This buffer is prepared by mixing 250 ml of solution A with 268 ml of solution B and by topping up to 1 liter with water.
Acetate buffer: solution A: 0.02M acetic acid; solution B: 0.02M sodium acetate.
This buffer is prepared by mixing volume by volume solutions A and B to obtain a buffer at pH 4.75.
Aqueous 1.17N perchloric acid solution (1/10 dilution of pure acid).
The following substrate concentration range was prepared in tubes: 0-0.2-0.5-1-2-5-10×10^-4 M (final concentration).
To each tube was added a concentration of 6.67 μg/ml of trypsin, everything being dissolved in the Tris buffer pH 8.0+CaCl2, 10 mM and at ambient temperature. The enzyme is added at time 0. After 2 minutes, 250 μl are removed from each tube and poured into tubes containing 250 μl of 1.17N perchloric acid and 500 μl of water. The tubes are centrifuged and then the solution is diluted to 1/250 in the acetate buffer. The same operation is repeated at 17 min. The fluorescence intensity is measured at 380/490nm. The difference of the intensities at 17 and 2 min constitutes the signal.
The corresponding ATC concentration is calculated compared with a calibration range from 5×10^-9 to 2×10^-7 M.
This was followed by the determination of Km, Vm, kcat and the ratio kcat/Km. The results obtained are given in table 6, which also gives for comparison purposes the values obtained with Z-L-Arg-AMC and Bz DL Arg-AMC and Bz -L-Arg-AMC.

[10] = Tris buffer pH 7.8, 37° C., no organic solvent
[11] = words, vs Leu AMC and Leu-βnaphthylamide
[12] = fluorescence intensity vs enzyme concentration (μg/ml), linear regression

ratio of the fluorescence intensities of the hydrolysis product and the substrate [1]: ~250
Molecule: Nc1ccc2c(CS(=O)(=O)O)cc(=O)oc2c1 [AMCS, 7-amino-4-coumarinyl-methane sulphonic acid, reference compound]

Maximum excitation wavelength, hydrolysis product ([2]; 10^-7 M in Tris buffer, pH 7.8): 350 nm | Maximum fluorescence wavelength, hydrolysis product ([2]; 10^-7 M in Tris buffer, pH 7.8): 465 nm | solubility [3]: 400 µg/mL and 1330 µM | ratio of the fluorescence intensities of the hydrolysis product and the substrate [1]: approximately 400
Molecule: COCCOCCOCc1cc(=O)oc2cc(N)ccc12 [Compound 4, 7-amino-4-(2',5',8'-trioxanonyl)coumarin]

Continued, molecule first:

Molecule: COCCOCCOCc1cc(=O)oc2cc(NC(=O)[C@@H](N)CC(C)C)ccc12 [Compound 13, L-leucine-4-(2',5',8'-trioxanonyl)-7-coumarinylamide hydrochloride]
Maximum excitation wavelength, substrate ([2]; 10^-7 M in Tris buffer, pH 7.8): 330 nm | Maximum fluorescence wavelength, substrate ([2]; 10^-7 M in Tris buffer, pH 7.8): 405 nm | Stokes displacement compared with AMC and AMCS derivatives ([2]; words): greater | excitation maximum, substrate [4]: 330 nm | fluorescence maximum, substrate [4]: 405 nm | ATC concentration in hydrolysis solution ([5]; Leu-ATC 2×10^-5 M): 1.7 µM/min | ATC concentration in working solution ([5]; Leu-ATC 2×10^-5 M): 1.38 nM | IF(6)-IF(2) ([5]; Leu-ATC 2×10^-5 M): 5.5 | ATC concentration in hydrolysis solution ([5]; Leu-ATC 4×10^-5 M): 3.6 µM/min | ATC concentration in working solution ([5]; Leu-ATC 4×10^-5 M): 2.88 nM | IF(6)-IF(2) ([5]; Leu-ATC 4×10^-5 M): 11.5 | ATC concentration in hydrolysis solution ([5]; Leu-ATC 10×10^-5 M): 6.6 µM/min | ATC concentration in working solution ([5]; Leu-ATC 10×10^-5 M): 5.25 nM | IF(6)-IF(2) ([5]; Leu-ATC 10×10^-5 M): 21 | ATC concentration in hydrolysis solution ([5]; Leu-ATC 20×10^-5 M): 12.0 µM/min | ATC concentration in working solution ([5]; Leu-ATC 20×10^-5 M): 9.63 nM | IF(6)-IF(2) ([5]; Leu-ATC 20×10^-5 M): 38.5 | ATC concentration in hydrolysis solution ([5]; Leu-ATC 50×10^-5 M): 14.1 µM/min | ATC concentration in working solution ([5]; Leu-ATC 50×10^-5 M): 11.25 nM | IF(6)-IF(2) ([5]; Leu-ATC 50×10^-5 M): 45 | ATC concentration in hydrolysis solution ([5]; Leu-ATC 100×10^-5 M): 14.7 µM/min | ATC concentration in working solution ([5]; Leu-ATC 100×10^-5 M): 11.75 nM | IF(6)-IF(2) ([5]; Leu-ATC 100×10^-5 M): 47 | ATC concentration in hydrolysis solution ([5]; Leu-ATC 200×10^-5 M): 15.0 µM/min | ATC concentration in working solution ([5]; Leu-ATC 200×10^-5 M): 12.0 nM | IF(6)-IF(2) ([5]; Leu-ATC 200×10^-5 M): 48 | Km [5, 10]: 110 µM | Vm [5, 10]: 10.3 μmole/mg Ez/min | kcat ([5]; ratio Vm/Ez, pH 7.8, 37° C.): 51.5 s⁻¹ | affinity for Leucine aminopeptidase compared with the other substrates [5, 11]: better than that of the two other substrates | maximum speed compared with the other substrates [5, 11]: higher | repeatability (variation coefficient) ([6]; at 0.05 μg/ml enzyme): 17% | repeatability (variation coefficient) ([6]; at 0.25 μg/ml enzyme): 8% | repeatability (variation coefficient) ([6]; at 1 μg/ml enzyme): 4% | gradient of calibration curve [6, 12]: 153±7.36 | intercept of calibration curve [6, 12]: -3.10±1.16 | quantification limit ([6]; leucine aminopeptidase, ratio 3 b/a, substrate 1 mM, 12 min): 0.02 µg/mL

Molecule: Cc1cc(=O)oc2cc(NC(=O)[C@@H](N)CC(C)C)ccc12 [Leu AMC]
Km [7]: 160 µM | Vm [7]: 4.0 μmole/mg Ez/min | Maximum excitation wavelength, substrate ([2]; 10^-7 M in Tris buffer, pH 7.8): 327 nm | Maximum fluorescence wavelength, substrate ([2]; 10^-7 M in Tris buffer, pH 7.8): 390 nm | detection limit [8]: 0.03 µg/mL

B1: Pig pancreas trypsin (Sus scrofa) (protein)
chain: IVGGYTCAANSIPYQVSLNSGSHFCGGSLINSQWVVSAAHCYKSRIQVRLGEHNIDVLEGNEQFINAAKIITHPNFNGNTLDNDIMLIKLSSPATLNSRVATVSLPRSCAAAGTECLISGWGNTKSSGSSYPSLLQCLKAPVLSDSSCKSSYPGQITGNMICVGFLEGGKDSCQGDSGGPVVCNGQLQGIVSWGYGCAQKNKPGVYTKVCNYVNWIQQTIAAN
Km [9]: 195 µM | Vmax [9]: 3.16 µM/min | kcat/Km [9]: 975 M⁻¹ s⁻¹
